Reference: ChEMBL document CHEMBL1201862, “PubChem BioAssay data set” (2004)
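Each compound was tested at five concentrations against cells in 96-well plates for 48 hours. At the GI50, growth is halved.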 Activity calls are given as the source filed them. No stated cut-off is given here; in the data, active = GI50 up to about 1.1 µM and inactive = higher.

Assays:
Test in all cases: NCI tumour cell line growth inhibition, 48 h
A549 = test system: A549
HCC 2998 = test system: HCC 2998
IGROV-1 = test system: IGROV-1
K562 = test system: K562
LOX IMVI = test system: LOX IMVI
M14 = test system: M14
MDA-N = test system: MDA-N
NCI-H23 = test system: NCI-H23
OVCAR-3 = test system: OVCAR-3
OVCAR-8 = test system: OVCAR-8
SF-268 = test system: SF-268
SF-539 = test system: SF-539
SNB-19 = test system: SNB-19
SNB-75 = test system: SNB-75
SR = test system: SR
TK-10 = test system: TK-10
U-251 = test system: U-251
UACC-62 = test system: UACC-62
UO-31 = test system: UO-31
M19-MEL = test system: M19-MEL

| SMILES | GI50 (A549) | GI50 (HCC 2998) | GI50 (IGROV-1) | GI50 (K562) | GI50 (LOX IMVI) | GI50 (M14) | GI50 (MDA-N) | GI50 (NCI-H23) | GI50 (OVCAR-3) | GI50 (OVCAR-8) | GI50 (SF-268) | GI50 (SF-539) | GI50 (SNB-19) | GI50 (SNB-75) | GI50 (SR) | GI50 (TK-10) | GI50 (U-251) | GI50 (UACC-62) | GI50 (UO-31) | GI50 (M19-MEL) |
| --- | --- | --- | --- | --- | --- | --- | --- | --- | --- | --- | --- | --- | --- | --- | --- | --- | --- | --- | --- | --- |
| CCCC(=O)NC(C(=O)OCC)(N1CCOCC1)C(F)(F)F (stereo not given) | > 100 µM (inactive) | > 100 µM (inactive) | > 100 µM (inactive) | > 100 µM (inactive) | > 100 µM (inactive) | > 100 µM (inactive) | > 100 µM (inactive) | > 100 µM (inactive) | > 100 µM (inactive) | > 100 µM (inactive) | > 100 µM (inactive) | > 100 µM (inactive) | > 100 µM (inactive) | > 100 µM (inactive) | > 100 µM (inactive) | > 100 µM (inactive) | > 100 µM (inactive) | > 100 µM (inactive) | > 100 µM (inactive) | – |
| O=C(NNC(=O)c1ccccc1SSc1ccccc1C(=O)NNC(=O)c1ccccc1S)c1ccccc1S | 13.4 µM (inactive) | 48.2 µM (inactive) | 11.6 µM (inactive) | 11.3 µM (inactive) | 11.9 µM (inactive) | 17.7 µM (inactive) | 20 µM (inactive) | 12.3 µM (inactive) | 31 µM (inactive) | 16.3 µM (inactive) | 4.24 µM (inactive) | 13.8 µM (inactive) | 26.2 µM (inactive) | 11.7 µM (inactive) | 5.35 µM (inactive) | 51.8 µM (inactive) | 19.5 µM (inactive) | 17.5 µM (inactive) | 9.95 µM (inactive) | – |
| C=C(C=O)c1c2c(nc3ccccc13)C(=O)c1ccccc1C2=O | 1.86 µM (inactive) | 2.75 µM (inactive) | 0.252 µM (active) | 0.391 µM (active) | 0.316 µM (active) | 0.562 µM (active) | 0.202 µM (active) | 0.481 µM (active) | 0.398 µM (active) | 0.434 µM (active) | 0.668 µM (active) | 0.673 µM (active) | 1.64 µM (inactive) | 1.14 µM (inactive) | 0.24 µM (active) | 1.02 µM (active) | 0.482 µM (active) | 0.918 µM (active) | 1.11 µM (active) | – |
| CC1SC2=NC3=C(c4ccccc4C3=O)C(c3ccc(Cl)cc3)N2C1=O (stereo not given) | > 100 µM (inactive) | > 100 µM (inactive) | > 100 µM (inactive) | > 100 µM (inactive) | – | > 100 µM (inactive) | – | 97.7 µM (inactive) | > 100 µM (inactive) | > 100 µM (inactive) | > 100 µM (inactive) | – | > 100 µM (inactive) | 45.8 µM (inactive) | – | > 100 µM (inactive) | > 100 µM (inactive) | > 100 µM (inactive) | 32.8 µM (inactive) | > 100 µM (inactive) |
| CSC(=S)Nc1cc(C)cc(C)n1 | > 31.6 µM (inactive) | > 31.6 µM (inactive) | > 100 µM (inactive) | > 31.6 µM (inactive) | > 31.6 µM (inactive) | > 31.6 µM (inactive) | > 31.6 µM (inactive) | > 31.6 µM (inactive) | > 31.6 µM (inactive) | > 31.6 µM (inactive) | > 31.6 µM (inactive) | > 100 µM (inactive) | > 31.6 µM (inactive) | > 10 µM (inactive) | > 10 µM (inactive) | > 31.6 µM (inactive) | > 31.6 µM (inactive) | > 31.6 µM (inactive) | > 31.6 µM (inactive) | – |
| COc1ccc2oc(=O)c(CC=C(C)C)c(O)c2c1C | > 100 µM (inactive) | > 100 µM (inactive) | > 100 µM (inactive) | > 100 µM (inactive) | > 100 µM (inactive) | > 100 µM (inactive) | > 100 µM (inactive) | > 100 µM (inactive) | > 100 µM (inactive) | > 100 µM (inactive) | > 100 µM (inactive) | > 100 µM (inactive) | > 100 µM (inactive) | > 100 µM (inactive) | > 100 µM (inactive) | > 100 µM (inactive) | > 100 µM (inactive) | > 100 µM (inactive) | > 100 µM (inactive) | – |
| CCC(CC)C(=O)OC[n+]1cccc(-c2c(COC(=O)NC(C)C)c(COC(=O)NC(C)C)c3n2CCC3)c1 | > 100 µM (inactive) | > 100 µM (inactive) | > 100 µM (inactive) | 97.5 µM (inactive) | > 100 µM (inactive) | 56.9 µM (inactive) | > 100 µM (inactive) | 61.1 µM (inactive) | > 100 µM (inactive) | > 100 µM (inactive) | 62.8 µM (inactive) | 68.7 µM (inactive) | > 100 µM (inactive) | > 100 µM (inactive) | 5.87 µM (inactive) | > 100 µM (inactive) | > 100 µM (inactive) | 46.6 µM (inactive) | > 100 µM (inactive) | – |
